# Laboratory results: patent US8809001B2, “High throughput assays for inhibitors and activators of PAQR receptors” (University of Florida Research Foundation, Inc., priority 2007, dated 2014)
# pKd: −log10 of the molar value.
# Tests used:
# AdipoR1 = biological target: T1, AdipoR1 (Homo sapiens, UniProt Q96A54); test: FET3-lacZ (pFET3-397) reporter repression in yeast expressing AdipoR1; assay type: cell-based; details: concentrations as high as 10 μM
# T1 construct: expressed in transfected cells; host or cells: Saccharomyces cerevisiae BY4742, GAL1-driven pYES260 plasmid
# T1 sequence (Q96A54 1-375): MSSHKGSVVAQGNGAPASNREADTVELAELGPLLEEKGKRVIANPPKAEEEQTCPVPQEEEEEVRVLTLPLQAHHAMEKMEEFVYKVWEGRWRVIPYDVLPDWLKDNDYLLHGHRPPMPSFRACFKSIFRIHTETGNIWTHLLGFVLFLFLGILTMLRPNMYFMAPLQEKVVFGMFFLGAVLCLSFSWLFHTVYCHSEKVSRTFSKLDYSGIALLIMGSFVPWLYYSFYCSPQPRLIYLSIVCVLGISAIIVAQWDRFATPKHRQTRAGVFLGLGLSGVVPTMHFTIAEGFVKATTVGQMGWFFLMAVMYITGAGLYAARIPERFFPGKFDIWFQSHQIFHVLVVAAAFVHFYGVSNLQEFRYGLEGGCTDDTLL
# Source text: IZH1-4 were cloned into pRS316-GAL1 via gap repair as previously described (Lyons et al., 2004). The triple hemaglutinin epitope (3×HA) tagged construct of the IZH2 gene was generated by replacing the ZRC1 promoter and open reading frame in the YCpZRC1-HA plasmid (MacDiarmid et al., 2002) with those of IZH2. This was accomplished by gap repair of Age I-digested YCpZRC1-HA to generate pIZH2-3×HA. This construct has the IZH2 gene driven by its native promoter and retains the ZRC1 terminator sequence. The native IZH2 promoter was then exchanged with the GAL1 promoter using gap repair of pIZH2-3×HA plasmids cut with EcoN I. AdipoR1 and AdipoR2 were amplified from cDNAs obtained from OpenBiosystems (Accession #: BC010743 and BC051858, respectively). PCR products were cloned into NcoI/BamHI digested pYES260 vector (Melcher, 2000) by gap repair allowing for GAL1-driven expression. Plasmids containing GAL1-driven the TAP (Tandem Affinity Purification) tagged NRG1 and NRG2 constructs were purchased from OpenBiosystems. […]
# (§1) Assays and growth conditions. […] Cells were allowed to grow to mid-log phase at which time the activity of the FET3 gene was monitored using a FET3-lacZ promoter-reporter construct. lacZ activities are presented as a percentage of activity seen in untreated cells expressing the appropriate empty expression vector control. […]
# AdipoR2 = test: FET3-lacZ (pFET3-397) reporter repression in yeast expressing AdipoR2; assay type: cell-based, human; details: concentrations as high as 10 μM
# Source text: IZH1-4 were cloned into pRS316-GAL1 via gap repair as previously described (Lyons et al., 2004). The triple hemaglutinin epitope (3×HA) tagged construct of the IZH2 gene was generated by replacing the ZRC1 promoter and open reading frame in the YCpZRC1-HA plasmid (MacDiarmid et al., 2002) with those of IZH2. This was accomplished by gap repair of Age I-digested YCpZRC1-HA to generate pIZH2-3×HA. This construct has the IZH2 gene driven by its native promoter and retains the ZRC1 terminator sequence. The native IZH2 promoter was then exchanged with the GAL1 promoter using gap repair of pIZH2-3×HA plasmids cut with EcoN I. AdipoR1 and AdipoR2 were amplified from cDNAs obtained from OpenBiosystems (Accession #: BC010743 and BC051858, respectively). PCR products were cloned into NcoI/BamHI digested pYES260 vector (Melcher, 2000) by gap repair allowing for GAL1-driven expression. Plasmids containing GAL1-driven the TAP (Tandem Affinity Purification) tagged NRG1 and NRG2 constructs were purchased from OpenBiosystems.
# Most experiments were performed in a defined EDTA-containing medium known as low iron medium (LIM) (Eide et al., 1992). Iron-deficiency and repletion were generated by adding either 1 μM or 1 mM of FeCl3, respectively, to LIM. 2% galactose was used to fully induce GAL1-driven gene overexpression. Total sugar concentration was maintained at 2% by the addition of raffinose in those experiments in which the % galactose was modulated to decrease expression levels. Cells were allowed to grow to mid-log phase in LIM and β-galactosidase assays on permeabilized yeast were performed as previously described (Lyons et al., 2000). […]
# as §1
# mPRs = details: determined by Thomas et al. (2008); read-out: Kd for progesterone binding to mPRs; cited from earlier work
structure (smiles),measurement,setting,value
"CC(=O)[C@H]1CC[C@H]2[C@@H]3CCC4=CC(=O)CC[C@]4(C)[C@H]3CC[C@]12C [Progesterone, progesterone]",response of AdipoR1 to progesterone,AdipoR1,do not respond
same,response of AdipoR2 to progesterone,AdipoR2,do not respond
same,pKd,mPRs,~8.30
